Source: PMC9209747 (Neuro-oncology Advances, 2022)
Entries after “also recorded” stand apart in the source; their conditions may differ. Read-outs that look alike come from different tables or passages of the source. Marks after values point to notes of the source that are not given here.

How the values were obtained:
[1] = cited from earlier work
[2] = test system: newly diagnosed diffuse intrinsic pontine glioma (DIPG); experiment: Clinical activity: objective response by MRI and overall survival; assay type: in vivo, human
Experimental: Disease assessments were performed at baseline prior to start of CRT, within 3–4 weeks after completion of CRT, and then every 3 months. Response assessment was determined by changes in size using the maximal 2-dimensional cross-sectional tumor measurements, T × W (product of the longest diameter of the tumor [width (W)] and its longest perpendicular diameter [transverse (T)], using either T1 or T2 weighted images, similar to historical controls.[21],[22] We defined stable disease (SD) as failing to meet criteria for either partial response (PR), complete response (CR) or progressive disease (PD). PD was defined as any appearance of new lesion(s) or an increase of 25% or more in the sum of the product of the perpendicular diameters of the target lesions. PR was defined as a decrease of 50% or more in the sum of the products of the two perpendicular diameters of the target lesion. Two objective determinations of disease status, by MRI, obtained on two consecutive determinations, separated by at least a 4-week time period, were required to determine the patient’s overall best response. Imaging was reviewed centrally for 41 response-evaluable patients.
Progressive disease was based on central imaging review.

[3] = cited from earlier work; remark: listed apart in the source
[4] = Experimental: Patients received focal CRT at the current standard dose of 54 Gy in 180 cGy fractions, Monday through Friday for a total of 30 fractions over 6 weeks, with a rest period on Saturday and Sunday of each week.
Adverse events (AE) were graded according to the Common Terminology Criteria for Adverse Events version 5.0.
A rolling six design was used to estimate the MTD or RP2D. Overall survival (OS) was estimated using the Kaplan Meier method including 95% confidence intervals (CI). OS was calculated as the time (in months) from enrollment until date of death. […] Progressive disease was based on central imaging review. […] OS is compared with an historical cohort of patients which cumulatively includes DIPG patients from ACNS0126[23] and ACNS0222[22] using a log-rank test. PK parameters were analyzed with summary statistics, including means, and standard deviations.

[5] = test system: pediatric glioma cell lines including a DIPG derived cell line; parameters: method as in PMID 24305702; settings: effect enhanced by radiation; cited from earlier work
[6] = test system: adult glioblastoma multiforme (GBM); parameters: method as in ref 3 (Mir et al.); settings: combining radiation therapy with adavosertib; ref 3 (Mir et al.); cited from earlier work
clinical = settings: human, in vivo
Experimental: Pharmacokinetic parameters were calculated using noncompartmental methods[20] using Phoenix® WinNonlin® Version 8.1 (WinNonlin version 8.1.03530, Pheonix 64; Pharsight Corporation, Mountain View, CA). […] Oral steady-state clearance (ClSS/F) was calculated using the equation, ClSS = Dose/AUCτ.

[7] = test system: pediatric high-grade glioma including DIPG; parameters: method as in PMID 24305702, PMID 23270927; settings: in combination with radiation therapy; cited from earlier work
γH2AX in tumor tissue = test system: γH2AX in tumor tissue; parameters: method as in our preclinical studies; settings: treated mice compared to control animals; ref our preclinical studies; cited from earlier work
[8] = parameters: method as in ref 25 = [25]; 25. Alexander B , Supko J , Agar N , et al. ACTR-14. Phase 1 study of AZD1775 with radiation therapy (RT) and Temozolomide (TMZ) in patients with newly diagnosed gliobasltoma (GBM) and evaluation of i; settings: adavosertib 200 mg/day (approximately 115 mg/m^2/day) in combination with temozolomide; cited from earlier work
[9] = 41 patients evaluable for objective response, with CRT

Q: What does the source list for C=CCn1c(=O)c2cnc(Nc3ccc(N4CCN(C)CC4)cc3)nc2n1-c1cccc(C(C)(C)O)n1 [adavosertib]?
A: Elimination half-life (t1/2) ([1]; adult patients): 9 to 11 h; Tmax ([1]; adult patients): 4 h; Mean oral clearance ([1]; fasting adults, ref a recent report of a food-effect study): 40.85 L/h; Progressive disease (PD) as best overall response, number of patients [2, 9]: 8; Progressive disease (PD) as best overall response, share of patients [2, 9]: 19.5%; Stable disease (SD) as best overall response, number of patients [2, 9]: 33; Stable disease (SD) as best overall response, share of patients [2, 9]: 80.5%; Best response by dose level ([2]; Fisher exact P = .82): no significant difference in best response by dose level; Median overall survival (OS) ([2]; Kaplan Meier, adavosertib with CRT, all dose levels): 11.8 months; OS compared to historical control ([2]; historical cohort ACNS0126 and ACNS0222, log-rank test): did not differ from historical control; also recorded: no significant difference in median OS; also recorded: not superior; BSA-adjusted plasma clearance ([3]; earlier pediatric COG study): 32.5 L/hr/m^2; MTD of adavosertib ([3]; in combination with irinotecan 90 mg/m^2/dose, orally daily for 5 days on a 21 day cycle): 85 mg/m^2/dose; Lung infection, patient-courses with grade >= 3 ([4]; all dose levels (N = 89)): 1 (1) # (%); Lung infection, patient-courses with grade >= 3 ([4]; dose level 4 (N = 15), 95 mg/m^2): 1 (6) # (%); Alanine aminotransferase increased, patient-courses with grade >= 3 ([4]; human, in vivo, 6 weeks): 1 (1) # (%); Anemia, patient-courses with grade >= 3 ([4]; human, in vivo, 6 weeks): 3 (3) # (%); Dizziness, patient-courses with grade >= 3 ([4]; human, in vivo, 6 weeks): 1 (1) # (%); Febrile neutropenia, patient-courses with grade >= 3 ([4]; human, in vivo, 6 weeks): 1 (1) # (%); Headache, patient-courses with grade >= 3 ([4]; human, in vivo, 6 weeks): 1 (1) # (%); Hypocalcemia, patient-courses with grade >= 3 ([4]; human, in vivo, 6 weeks): 1 (1) # (%); Lymphocyte count decreased, patient-courses with grade >= 3 ([4]; human, in vivo, 6 weeks): 16 (18) # (%); Neutrophil count decreased, patient-courses with grade >= 3 ([4]; human, in vivo, 6 weeks): 4 (4) # (%); Weight gain, patient-courses with grade >= 3 ([4]; human, in vivo, 6 weeks): 2 (2) # (%); White blood cell decreased, patient-courses with grade >= 3 ([4]; human, in vivo, 6 weeks): 5 (6) # (%); Recommended phase 2 dose (RP2D) ([4]; human, in vivo, po, 6 weeks): 200 mg/m^2/d; Maximum tolerated dose (MTD) ([4]; seven dose levels up to 200 mg/m^2/day with CRT): No MTD was reached; Anti-proliferative effect in clonogenic survival assays [5]: dose-dependent anti-proliferative effects; Survival in orthotopic GBM models [6]: significantly improved survival; Dose dependence of Cmax and AUC (clinical): appeared to increase in proportion to dose; Median BSA-adjusted plasma clearance (clinical): 45.2 L/hr/m^2; Median half-life (clinical): 4.4 h; half-life (clinical): 4.4 h; AUC (clinical; 50 mg/m2): 2.45 ± 1.04 µM·h; AUC0-8h (clinical; 50 mg/m2): 1.42 ± 0.438 µM·h; AUC(0-inf) (clinical; 50 mg/m2): 2.22 ± 0.8 µM·h; CLss (steady-state clearance) (clinical; 50 mg/m2): 47.9 ± 23.2 L/hr/m^2; Cmax (clinical; 50 mg/m2): 356 ± 109 nM; Tmax (clinical; 50 mg/m2): 1.9 ± 0.9 h; half-life (clinical; 50 mg/m2): 4.2 ± 1.3 h; AUC(0-t) (clinical; 50 mg/m2, AUC0-8h): 1.65 ± 0.654 µM·h; Cmax (clinical; 50 mg/m2, Cmax): 422 ± 170 nM; Tmax (clinical; 50 mg/m2, Tmax): 1.9 ± 0.9 h; AUC (clinical; 95 mg/m2): 5.74 ± 2.72 µM·h; AUC0-8h (clinical; 95 mg/m2): 3.362 ± 0.85 µM·h; AUC(0-inf) (clinical; 95 mg/m2): 6.03 ± 1.98 µM·h; CLss (steady-state clearance) (clinical; 95 mg/m2): 39.2 ± 17.2 L/hr/m^2; Cmax (clinical; 95 mg/m2): 869 ± 235 nM; Tmax (clinical; 95 mg/m2): 1.8 ± 0.4 h; half-life (clinical; 95 mg/m2): 4.5 ± 1.2 h; AUC(0-t) (clinical; 95 mg/m2, AUC0-8h): 4.01 ± 1.81 µM·h; Cmax (clinical; 95 mg/m2, Cmax): 933 ± 351 nM; Tmax (clinical; 95 mg/m2, Tmax): 1.9 ± 0.5 h; AUC (clinical; 130 mg/m2): 7.21 ± 2.76 µM·h; AUC0-8h (clinical; 130 mg/m2): 3.731 ± 1.583 µM·h; AUC(0-inf) (clinical; 130 mg/m2): 5.87 ± 2.26 µM·h; CLss (steady-state clearance) (clinical; 130 mg/m2): 41.6 ± 19.8 L/hr/m^2; Cmax (clinical; 130 mg/m2): 821 ± 410 nM; half-life (clinical; 130 mg/m2): 4.1 ± 0.5 h; AUC(0-t) (clinical; 130 mg/m2, AUC0-8h): 4.48 ± 1.77 µM·h; Cmax (clinical; 130 mg/m2, Cmax): 994 ± 467 nM; Tmax (clinical; 130 mg/m2, Tmax): 2.3 ± 0.8 h; AUC (clinical; 160 mg/m2): 12.8 ± 1.8 µM·h; AUC0-8h (clinical; 160 mg/m2): 6.689 ± 2.738 µM·h; AUC(0-inf) (clinical; 160 mg/m2): 11.4 ± 3.73 µM·h; CLss (steady-state clearance) (clinical; 160 mg/m2): 25.6 ± 3.3 (n* = 4) L/hr/m^2; Cmax (clinical; 160 mg/m2): 1270 ± 705 nM; half-life (clinical; 160 mg/m2): 4.8 ± 1 h; AUC(0-t) (clinical; 160 mg/m2, AUC0-8h): 8.47 ± 2.36 µM·h; Cmax (clinical; 160 mg/m2, Cmax): 1690 ± 670 nM; Tmax (clinical; 160 mg/m2, Tmax): 2.2 ± 1.1 h; AUC (clinical; 200 mg/m2): 16.4 ± 7.76 µM·h; AUC0-8h (clinical; 200 mg/m2): 6.904 ± 2.758 µM·h; AUC(0-inf) (clinical; 200 mg/m2): 12.2 ± 1.7 µM·h; CLss (steady-state clearance) (clinical; 200 mg/m2): 33.4 ± 25.8 L/hr/m^2; Cmax (clinical; 200 mg/m2): 1650 ± 1050 nM; Tmax (clinical; 200 mg/m2): 2.5 ± 2.1 h; half-life (clinical; 200 mg/m2): 5.6 ± 1.3 h; AUC(0-t) (clinical; 200 mg/m2, AUC0-8h): 9.63 ± 4.22 µM·h; Cmax (clinical; 200 mg/m2, Cmax): 2020 ± 780 nM; Tmax (clinical; 200 mg/m2, Tmax): 2.6 ± 1.4 h; Mean oral clearance (clinical; po): 46.9 L/h; Tmax (clinical; po, Tmax): 2 h; Survival in murine models [7]: prolongs survival; γH2AX expression in tumor tissue (γH2AX in tumor tissue): increased expression of γH2AX; Toxicity in adults with newly diagnosed glioblastoma [8]: significant toxicity
